What was measured:
[1] = molecular target: T1, GPR6 (Homo sapiens, UniProt P46095); assay: GPR6 antagonist functional cAMP assay (LANCE Ultra cAMP TR-FRET, CHO cells stably expressing GPR6); assay type: cell-based; conditions: CHO cells stably expressing GPR6, cAMP assay
T1 construct: expressed in transfected cells; host or cells: CHO cells
In short: (§1)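 Compounds, at 0.1% final DMSO, acted on the cells for 45 minutes at 37 °C in the presence of the phosphodiesterase inhibitor Ro 20-1724 (150 μM). After lysis and detection, plates were shaken 1 h at room temperature and emission at 665 nm was recorded. Normalized data gave IC50 values.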

[2] = molecular target: T2, GPR3 (Homo sapiens, UniProt P46089); assay: GPR3 antagonist functional cAMP assay (LANCE Ultra cAMP TR-FRET, CHO cells stably expressing GPR3); assay type: cell-based; conditions: CHO cells stably expressing GPR3, cAMP assay
T2 construct: expressed in transfected cells; host or cells: CHO cells
In short: as §1

T2 sequence (P46089 whole entry, species assumed): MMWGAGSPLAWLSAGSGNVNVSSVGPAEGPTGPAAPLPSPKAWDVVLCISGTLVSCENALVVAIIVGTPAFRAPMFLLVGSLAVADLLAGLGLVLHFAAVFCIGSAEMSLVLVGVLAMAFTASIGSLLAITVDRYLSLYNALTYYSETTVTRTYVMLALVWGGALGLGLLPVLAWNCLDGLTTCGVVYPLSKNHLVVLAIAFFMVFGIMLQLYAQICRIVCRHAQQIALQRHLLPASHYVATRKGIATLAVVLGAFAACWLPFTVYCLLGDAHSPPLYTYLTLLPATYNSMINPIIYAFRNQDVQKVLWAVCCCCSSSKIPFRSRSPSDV
T1 sequence (P46095 whole entry): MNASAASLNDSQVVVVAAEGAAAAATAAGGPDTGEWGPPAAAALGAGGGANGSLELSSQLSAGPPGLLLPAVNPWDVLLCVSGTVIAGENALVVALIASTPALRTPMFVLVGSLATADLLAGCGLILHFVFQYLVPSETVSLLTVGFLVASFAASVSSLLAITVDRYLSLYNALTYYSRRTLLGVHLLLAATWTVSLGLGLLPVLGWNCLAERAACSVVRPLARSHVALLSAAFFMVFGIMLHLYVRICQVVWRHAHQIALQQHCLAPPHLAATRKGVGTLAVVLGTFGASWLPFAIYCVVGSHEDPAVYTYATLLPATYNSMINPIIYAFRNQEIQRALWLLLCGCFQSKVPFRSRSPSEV

| Structure (SMILES) | IC50 [1] [µM] | IC50 [2] [µM] |
| --- | --- | --- |
| COC[C@@H]1C[C@H]1c1nc2c(nc1N1CCC(Oc3ccc(F)cc3F)CC1)CCN(C(C)=O)C2 [Compound 547, 1-{3-[(1R,2R)-2-(methoxymethyl)cyclopropyl]-2-[4-(2,4-difluorophenoxy)-1-piperidyl]-5,6,7,8-tetrahydro-1,4,6-triaza-6-naphthyl}-1-ethanone] | 1 to 30 | 1 to 30 |
| CC(=O)N1CCc2nc(N3CCN(Cc4c[nH]cn4)CC3)c(-c3cnn(C)c3)nc2C1 [Compound 548, 1-(2-{4-[(4-imidazolyl)methyl]-1-piperazinyl}-3-(1-methyl-4-pyrazolyl)-5,6,7,8-tetrahydro-1,4,6-triaza-6-naphthyl)-1-ethanone] | ≥ 30 | ≥ 30 |
| CCn1cc(-c2nc3c(nc2N2CCN(C(=O)c4ccc(Cl)c(C)c4)CC2)CCN(C(C)=O)C3)cn1 [Compound 550, 1-{2-[4-(4-chloro-3-toluoyl)-1-piperazinyl]-3-(1-ethyl-4-pyrazolyl)-5,6,7,8-tetrahydro-1,4,6-triaza-6-naphthyl}-1-ethanone] | 1 to 30 | 1 to 30 |
| CC(=O)N1CCc2nc(N3CCN(C(CO)(CO)c4ccccc4F)CC3)c(-c3cnn(C)c3)nc2C1 [Compound 552, 1-(2-{4-[1-(o-fluorophenyl)-2-hydroxy-1-(hydroxymethyl)ethyl]-1-piperazinyl}-3-(1-methyl-4-pyrazolyl)-5,6,7,8-tetrahydro-1,4,6-triaza-6-naphthyl)-1-ethanone] | 1 to 30 | ≥ 30 |
| CC(=O)N1CCc2nc(N3CCC(C(C)(O)c4ccc(F)cc4F)CC3)c(-c3cnn(C)c3)nc2C1 (stereo not shown) [Compound 558, 1-(2-{4-[1-(2,4-difluorophenyl)-1-hydroxyethyl]-1-piperidyl}-3-(1-methyl-4-pyrazolyl)-5,6,7,8-tetrahydro-1,4,6-triaza-6-naphthyl)-1-ethanone] | 1 to 30 | 0.1 to 1 |
| CC(C)(O)C(=O)c1cc2nc(N3CCN(Cc4ccc(F)cc4F)CC3)c(-c3cnn(CF)c3)nc2cn1 [Compound 568, 1-(2-{4-[(2,4-difluorophenyl)methyl]-1-piperazinyl}-3-[1-(fluoromethyl)-4-pyrazolyl]-1,4,6-triaza-7-naphthyl)-2-hydroxy-2-methyl-1-propanone] | 0.1 to 1 | 1 to 30 |
| Cn1cc(-c2nc3ccc(C(O)C(C)(C)O)nc3nc2N2CCN(Cc3ccc(F)cc3F)CC2)cn1 (stereo not shown) [Compound 569, 1-(3-{4-[(2,4-difluorophenyl)methyl]-1-piperazinyl}-2-(1-methyl-4-pyrazolyl)-1,4,5-triaza-6-naphthyl)-2-methyl-1,2-propanediol] | 1 to 30 | ≥ 30 |
| Cn1cc(-c2nc3ccc(C(O)C(C)(C)O)nc3nc2N2CCC(Oc3ccc(F)cc3F)CC2)cn1 (stereo not shown) [Compound 587, 1-{3-[4-(2,4-difluorophenoxy)-1-piperidyl]-2-(1-methyl-4-pyrazolyl)-1,4,5-triaza-6-naphthyl}-2-methyl-1,2-propanediol] | 1 to 30 | 1 to 30 |
| Cn1cc(-c2nc3cc(C(C)(O)C(C)(C)O)ncc3nc2N2CCN(Cc3ccc(F)cc3F)CC2)cn1 (stereo not shown) [Compound 604, 2-(3-{4-[(2,4-difluorophenyl)methyl]-1-piperazinyl}-2-(1-methyl-4-pyrazolyl)-1,4,6-triaza-7-naphthyl)-3-methyl-2,3-butanediol] | 0.1 to 1 | 1 to 30 |
| CC(C)(O)C(C)(O)c1cc2nc(N3CCN(Cc4ccc(F)cc4F)CC3)c(-c3cnn(C4CC4)c3)nc2cn1 (stereo not shown) [Compound 605, 2-[3-(1-cyclopropyl-4-pyrazolyl)-2-{4-[(2,4-difluorophenyl)methyl]-1-piperazinyl}-1,4,6-triaza-7-naphthyl]-3-methyl-2,3-butanediol] | 0.1 to 1 | 1 to 30 |
| CC(C)(O)C(O)c1cc2nc(N3CCN(Cc4ccccc4F)CC3)c(-c3cnn(CF)c3)nc2cn1 (stereo not shown) [Compound 606, 1-{3-[1-(fluoromethyl)-4-pyrazolyl]-2-{4-[(o-fluorophenyl)methyl]-1-piperazinyl}-1,4,6-triaza-7-naphthyl}-2-methyl-1,2-propanediol] | 0.1 to 1 | 1 to 30 |
| CC(C)(O)C(C)(O)c1cc2nc(N3CCN(Cc4ccc(F)cc4F)CC3)c(-c3cnn(CF)c3)nc2cn1 (stereo not shown) [Compound 607, 2-(2-{4-[(2,4-difluorophenyl)methyl]-1-piperazinyl}-3-[1-(fluoromethyl)-4-pyrazolyl]-1,4,6-triaza-7-naphthyl)-3-methyl-2,3-butanediol] | 0.1 to 1 | 1 to 30 |
| CC(C)(O)C(=O)c1cc2nc(N3CCN(Cc4ccccc4F)CC3)c(-c3cnn(CF)c3)nc2cn1 [Compound 608, 1-{3-[1-(fluoromethyl)-4-pyrazolyl]-2-{4-[(o-fluorophenyl)methyl]-1-piperazinyl}-1,4,6-triaza-7-naphthyl}-2-hydroxy-2-methyl-1-propanone] | 0.1 to 1 | 1 to 30 |

Results, then the compound that gave them:

| IC50 [1] [µM] | IC50 [2] [µM] | Structure (SMILES) |
| --- | --- | --- |
| < 0.1 | 1 to 30 | COC[C@H]1C[C@@H]1c1nc2c(nc1N1CCC(Oc3ccc(F)cc3F)CC1)CCN(C(C)=O)C2 [Compound 546, 1-{3-[(1S,2S)-2-(methoxymethyl)cyclopropyl]-2-[4-(2,4-difluorophenoxy)-1-piperidyl]-5,6,7,8-tetrahydro-1,4,6-triaza-6-naphthyl}-1-ethanone] |
| 0.1 to 1 | 1 to 30 | CCn1cc(-c2nc3c(nc2N2CCN(C(=O)c4ccc(Cl)cc4)CC2)CCN(C(C)=O)C3)cn1 [Compound 549, 1-{2-[4-(p-chlorobenzoyl)-1-piperazinyl]-3-(1-ethyl-4-pyrazolyl)-5,6,7,8-tetrahydro-1,4,6-triaza-6-naphthyl}-1-ethanone] |
| 0.1 to 1 | ≥ 30 | CC(=O)N1CCc2nc(N3CCN(C(CO)(CO)c4cc(F)ccc4F)CC3)c(-c3cnn(C)c3)nc2C1 [Compound 551, 1-(2-{4-[1-(2,5-difluorophenyl)-2-hydroxy-1-(hydroxymethyl)ethyl]-1-piperazinyl}-3-(1-methyl-4-pyrazolyl)-5,6,7,8-tetrahydro-1,4,6-triaza-6-naphthyl)-1-ethanone] |
| 0.1 to 1 | 1 to 30 | Cn1cc(-c2nc3cnc(C(C)(O)CO)cc3nc2N2CCC(Oc3ccc(F)cc3F)CC2)cn1 (stereo not shown) [Compound 556, 2-{2-[4-(2,4-difluorophenoxy)-1-piperidyl]-3-(1-methyl-4-pyrazolyl)-1,4,6-triaza-7-naphthyl}-1,2-propanediol] |
| < 0.1 | < 0.1 | CC(=O)N1CCc2nc(N3CCC(C(F)c4ccc(F)cc4F)CC3)c(-c3cnn(C)c3)nc2C1 (stereo not shown) [Compound 557, 1-(2-{4-[(2,4-difluorophenyl)fluoromethyl]-1-piperidyl}-3-(1-methyl-4-pyrazolyl)-5,6,7,8-tetrahydro-1,4,6-triaza-6-naphthyl)-1-ethanone] |
| 0.1 to 1 | 1 to 30 | CC(C)(O)C(O)c1cc2nc(N3CCN(Cc4ccccc4F)CC3)c(-c3cnn(C(F)F)c3)nc2cn1 (stereo not shown) [Compound 559, 1-{3-[1-(difluoromethyl)-4-pyrazolyl]-2-{4-[(o-fluorophenyl)methyl]-1-piperazinyl}-1,4,6-triaza-7-naphthyl}-2-methyl-1,2-propanediol] |
| < 0.1 | 0.1 to 1 | CC(=O)N1CCc2nc(N3CCC(=Cc4ccc(F)cc4)CC3)c(-c3cnn(C)c3)nc2C1 [Compound 560, 1-(2-{4-[(p-fluorophenyl)methylene]-1-piperidyl}-3-(1-methyl-4-pyrazolyl)-5,6,7,8-tetrahydro-1,4,6-triaza-6-naphthyl)-1-ethanone] |
| 0.1 to 1 | 1 to 30 | Cn1cc(-c2nc3cc(C(=O)C(C)(C)O)ncc3nc2N2CCN(Cc3ccc(F)cc3F)CC2)cn1 [Compound 563, 1-(3-{4-[(2,4-difluorophenyl)methyl]-1-piperazinyl}-2-(1-methyl-4-pyrazolyl)-1,4,6-triaza-7-naphthyl)-2-hydroxy-2-methyl-1-propanone] |
| 0.1 to 1 | 1 to 30 | CC(C)(O)C(=O)c1cc2nc(N3CCN(Cc4ccc(F)cc4F)CC3)c(-c3cnn(C(F)F)c3)nc2cn1 [Compound 566, 1-{3-[1-(difluoromethyl)-4-pyrazolyl]-2-{4-[(2,4-difluorophenyl)methyl]-1-piperazinyl}-1,4,6-triaza-7-naphthyl}-2-hydroxy-2-methyl-1-propanone] |
| 0.1 to 1 | 1 to 30 | COCC(C)(O)c1cc2nc(N3CCC(Oc4ccc(F)cc4F)CC3)c(-c3cnn(C)c3)nc2cn1 (stereo not shown) [Compound 567, 2-{2-[4-(2,4-difluorophenoxy)-1-piperidyl]-3-(1-methyl-4-pyrazolyl)-1,4,6-triaza-7-naphthyl}-1-methoxy-2-propanol] |
| < 0.1 | 1 to 30 | CC(=O)N1CCc2nc(N3CCN(Cc4cc(Cl)ccc4Cl)CC3)c(-c3ccc(F)c(N)n3)nc2C1 [Compound 580, 1-[3-(6-amino-5-fluoro-2-pyridyl)-2-{4-[(2,5-dichlorophenyl)methyl]-1-piperazinyl}-5,6,7,8-tetrahydro-1,4,6-triaza-6-naphthyl]-1-ethanone] |
| < 0.1 | 1 to 30 | CC(=O)N1CCc2nc(N3CCN(Cc4cc(F)ccc4F)CC3)c(-c3ccc(F)c(N)n3)nc2C1 [Compound 581, 1-[3-(6-amino-5-fluoro-2-pyridyl)-2-{4-[(2,5-difluorophenyl)methyl]-1-piperazinyl}-5,6,7,8-tetrahydro-1,4,6-triaza-6-naphthyl]-1-ethanone] |
| < 0.1 | 1 to 30 | CC(=O)N1CCc2nc(N3CCN(Cc4cc(Cl)ccc4F)CC3)c(-c3ccc(F)c(N)n3)nc2C1 [Compound 582, 1-[3-(6-amino-5-fluoro-2-pyridyl)-2-{4-[(5-chloro-2-fluorophenyl)methyl]-1-piperazinyl}-5,6,7,8-tetrahydro-1,4,6-triaza-6-naphthyl]-1-ethanone] |

— patent publication US20260042755A1, “GPR6 INVERSE AGONISTS” (MapLight Therapeutics, Inc., priority 2022, published 2026)
